In patent US20170210723A1, “MOLECULES HAVING PESTICIDAL UTILITY, AND INTERMEDIATES, COMPOSITIONS, AND PROCESSES, RELATED THERETO” (priority 2016, published 2017):

Experiments:
Format in all cases: in vivo
[1] = test system: Cabbage Looper (Trichoplusia ni); assay: Bioassays on CL, 128-well diet tray assay; conditions: Trichoplusia ni; for mortality at 50 µg/cm2: 168 h, 50 μg/cm^2 on artificial diet, second instar larvae, five to seven days, read-out: CL % Control (or Mortality) rating
Procedure, shortened: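 Test molecule at 50 μg/cm^2 applied to the artificial diet surface (acetone-water) and dried; one to five second-instar T. ni larvae per well, eight wells per treatment, held at 25° C., 14:10 light-dark for five to seven days. Percent mortality averaged over wells.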

[2] = test system: Yellow Fever Mosquito (Aedes aegypti); assay: Bioassays on Yellow Fever Mosquito larvae, 96-well plate; conditions: from 4000 ppm DMSO master plate, about 1 day-old larvae, 3 days
Procedure, shortened: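 Aedes aegypti larvae about 1 day old, in water with liver powder, exposed in 96-well plates to compounds from a 4000 ppm DMSO master solution diluted in 90:10 water:acetone. Plates covered and held at room temperature for 3 days, then each well scored for mortality; 6 replicate plates.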

[3] = test system: Green Peach Aphid (Myzus persicae); assay: Bioassays on Green Peach Aphid, foliar spray on cabbage seedlings; conditions: 72 h, 200 ppm spray on cabbage seedlings, three days, Abbott corrected % control, read-out: GPA % Control (or Mortality) rating
Experimental: Cabbage seedlings grown in 3-inch pots, with 2-3 small (3-5 cm) true leaves, were used as test substrate. The seedlings were infested with 20-50 GPA (wingless adult and nymph stages) one day prior to chemical application. Four pots with individual seedlings were used for each treatment. Test molecules (2 mg) were dissolved in 2 mL of acetone/methanol (1:1) solvent, forming stock solutions of 1000 ppm test molecule. The stock solutions were diluted 5× with 0.025% Tween 20 in water to obtain the solution at 200 ppm test molecule. A hand-held aspirator-type sprayer was used for spraying a solution to both sides of […] leaves until runoff. Reference plants (solvent check) were sprayed with the diluent only containing 20% by volume of acetone/methanol (1:1) solvent. Treated plants were held in a holding room for three days at approximately 25° C. and ambient relative humidity (RH) prior to grading. Evaluation was conducted by counting the number of live aphids per plant under a microscope. Percent Control was measured by using Abbott's correction formula (W. S. Abbott, “A Method of Computing the Effectiveness of an Insecticide” J. Econ. Entomol. 18 (1925), pp. 265-267) as follows.
Corrected % Control=100*(X−Y)/X • where • X=No. of live aphids on solvent check plants and • Y=No. of live aphids on treated plants

[4] = test system: Beet Armyworm (Spodoptera exigua); assay: Bioassays on BAW, 128-well diet tray assay; conditions: Spodoptera exigua; for mortality at 50 µg/cm2: 168 h, 50 μg/cm^2 on artificial diet, second instar larvae, five to seven days, read-out: BAW % Control (or Mortality) rating

Row | SMILES | mortality at 50 µg/cm2 [1] [%] | YFM % Control (or Mortality) rating [2] | mortality at 200 ppm [3] [%] | mortality at 50 µg/cm2 [4] [%] | mortality at 0.05 µg/cm2 ([1]; 0.05 μg/cm^2, read-out: CL Percent control (or mortality)) [%] | mortality at 0.5 µg/cm2 ([1]; 0.5 μg/cm^2, read-out: CL Percent control (or mortality)) [%] | mortality at 5 µg/cm2 ([1]; 5 μg/cm^2, read-out: CL Percent control (or mortality)) [%] | mortality at 0.05 µg/cm2 ([4]; 0.05 μg/cm^2, read-out: BAW Percent control (or mortality)) [%] | mortality at 0.5 µg/cm2 ([4]; 0.5 μg/cm^2, read-out: BAW Percent control (or mortality)) [%] | mortality at 5 µg/cm2 ([4]; 5 μg/cm^2, read-out: BAW Percent control (or mortality)) [%]
1 | C[C@H](CSCC(F)(F)F)NC(=O)c1ccc(/C=C/C(c2cc(Cl)c(Cl)c(Cl)c2)C(F)(F)F)cc1C(F)(F)F (stereo partly drawn) [F22, 4-((E)-4,4,4-trifluoro-3-(3,4,5-trichlorophenyl)but-1-en-1-yl)-N—((R)-1-((2,2,2-trifluoroethyl)thio)propan-2-yl)-2-(trifluoromethyl)benzamide] | 50 to 100 | A (80-100) | 80 to 100 | 50 to 100 |  |  |  |  |  | 
2 | CS(=O)(=O)CC[C@@H](NC(=O)c1ccc(/C=C/C(c2cc(Cl)c(Cl)c(Cl)c2)C(F)(F)F)cc1Br)C(=O)NCC(F)(F)F (stereo partly drawn) [F25, 2-bromo-N—((R)-4-(methylsulfonyl)-1-oxo-1-((2,2,2-trifluoroethyl)amino)butan-2-yl)-4-((E)-4,4,4-trifluoro-3-(3,4,5-trichlorophenyl)but-1-en-1-yl)benzamide] | 50 to 100 | A (80-100) | 0 to 80 | 50 to 100 |  |  |  |  |  | 
3 | CS(=O)(=O)CC[C@@H](NC(=O)c1ccc(/C=C/C(c2cc(Cl)c(Cl)c(Cl)c2)C(F)(F)F)cc1C(F)(F)F)C(=O)NCC(F)(F)F (stereo partly drawn) [F26, N—((R)-4-(Methylsulfonyl)-1-oxo-1-((2,2,2-trifluoroethyl)amino)butan-2-yl)-4-((E)-4,4,4-trifluoro-3-(3,4,5-trichlorophenyl)but-1-en-1-yl)-2-(trifluoromethyl)benzamide] | 50 to 100 | B (More than 0-Less than 80) | 0 to 80 | 50 to 100 |  |  |  |  |  | 
4 | C[C@H](CSCC(F)(F)F)NC(=O)c1ccc(/C=C/C(c2cc(Cl)c(F)c(Cl)c2)C(F)(F)F)cc1C(F)(F)F (stereo partly drawn) [F35, 4-((E)-3-(3,5-Dichloro-4-fluorophenyl)-4,4,4-trifluorobut-1-en-1-yl)-N—((R)-1-((2,2,2-trifluoroethyl)thio)propan-2-yl)-2-(trifluoromethyl)benzamide] | 50 to 100 | A (80-100) | 0 to 80 | 50 to 100 |  |  |  |  |  | 
5 | C[C@H](CSCC(F)(F)F)NC(=O)c1ccc(/C=C/C(c2cc(Cl)c(Cl)c(Cl)c2)C(F)(F)F)cc1Br (stereo partly drawn) [F38, 2-Bromo-4-((E)-4,4,4-trifluoro-3-(3,4,5-trichlorophenyl)but-1-en-1-yl)-N-((R)-1-((2,2,2-trifluoroethyl)thio)propan-2-yl)benzamide] | 50 to 100 | A (80-100) | 0 to 80 | 50 to 100 |  |  |  |  |  | 
6 | C[C@H](C[S+]([O-])CC(F)(F)F)NC(=O)c1ccc(/C=C/C(c2cc(Cl)c(F)c(Cl)c2)C(F)(F)F)cc1Br (stereo partly drawn) [F49, 2-Bromo-4-((E)-3-(3,5-dichloro-4-fluorophenyl)-4,4,4-trifluorobut-1-en-1-yl)-N-((2R)-1-((2,2,2-trifluoroethyl)sulfinyl)propan-2-yl)benzamide] | 50 to 100 | A (80-100) | 0 | 50 to 100 |  |  |  |  |  | 
7 | C[C@H](CSCC(F)(F)F)NC(=O)c1ccc(/C=C/C(c2cc(Br)cc(Br)c2)C(F)(F)F)cc1C(F)(F)F (stereo partly drawn) [F56, 4-((E)-3-(3,5-Dibromophenyl)-4,4,4-trifluorobut-1-en-1-yl)-N—((R)-1-((2,2,2-trifluoroethyl)thio)propan-2-yl)-2-(trifluoromethyl)benzamide] | 50 to 100 | A (80-100) | 0 | 50 to 100 |  |  |  |  |  | 
8 | C[C@H](CS(=O)(=O)CC(F)(F)F)NC(=O)c1ccc(/C=C/C(c2cc(Cl)c(Cl)c(Cl)c2)C(F)(F)F)cc1Cl (stereo partly drawn) [F58, 2-Chloro-4-((E)-4,4,4-trifluoro-3-(3,4,5-trichlorophenyl)but-1-en-1-yl)-N—((R)-1-((2,2,2-trifluoroethyl)sulfonyl)propan-2-yl)benzamide] | 50 to 100 | A (80-100) | 0 | 50 to 100 | 100 | 100 | 100 | 100 | 100 | 100
9 | C[C@H](CS(=O)(=O)CC(F)(F)F)NC(=O)c1ccc(/C=C/C(c2cc(Br)c(Cl)c(Br)c2)C(F)(F)F)cc1C(F)(F)F (stereo partly drawn) [F59, 4-((E)-3-(3,5-Dibromo-4-chlorophenyl)-4,4,4-trifluorobut-1-en-1-yl)-N—((R)-1-((2,2,2-trifluoroethyl)sulfonyl)propan-2-yl)-2-(trifluoromethyl)benzamide] | 50 to 100 |  | 0 | 50 to 100 |  |  |  |  |  | 
10 | CCS(=O)(=O)C[C@@H](C)NC(=O)c1ccc(/C=C/C(c2cc(Cl)c(Cl)c(Cl)c2)C(F)(F)F)cc1C(F)(F)F (stereo partly drawn) [F68, N—((R)-1-(Ethylsulfonyl)propan-2-yl)-4-((E)-4,4,4-trifluoro-3-(3,4,5-trichlorophenyl)but-1-en-1-yl)-2-(trifluoromethyl)benzamide] | 50 to 100 | A (80-100) | 0 to 80 | 50 to 100 |  |  |  |  |  | 
11 | CCC[S+]([O-])C[C@@H](C)NC(=O)c1ccc(/C=C/C(c2cc(Cl)c(Cl)c(Cl)c2)C(F)(F)F)cc1C(F)(F)F (stereo partly drawn) [F111, N-((2R)-1-(Propylsulfinyl)propan-2-yl)-4-((E)-4,4,4-trifluoro-3-(3,4,5-trichlorophenyl)but-1-en-1-yl)-2-(trifluoromethyl)benzamide] | 50 to 100 | A (80-100) | 0 to 80 | 50 to 100 |  |  |  |  |  | 
12 | C[C@H](CSCCF)NC(=O)c1ccc(/C=C/C(c2cc(Cl)c(Cl)c(Cl)c2)C(C)(F)F)cc1C(F)(F)F (stereo partly drawn) [F119, 4-((E)-4,4-Difluoro-3-(3,4,5-trichlorophenyl)pent-1-en-1-yl)-N—((R)-1-((2-fluoroethyl)thio)propan-2-yl)-2-(trifluoromethyl)benzamide] | 50 to 100 | A (80-100) | 0 to 80 | 50 to 100 |  |  |  |  |  | 
